By EC50 is commonly meant the concentration that produces a half-maximal response. As usually defined, the inhibition is the share of the control response that was lost under treatment.

The text below walks through data of patent US6265423A, “Aromatic polycyclic retinoid-type derivatives, method for preparing same, and use thereof for making pharmaceutical and cosmetic compositions” (priority 1996, dated 2001).

One test concerns RARα-ERcassette. Description: Transactivation, chimerical receptor RARα-ERcassette (HeLa). Type of test: cell-based. To be noted: TTNPB 10^-8 M = 100. From the text: (§1) The HeLa cells are co-transfected by a plasmid which codes for a retinoic receptor in which the C domain of bonding to the DNA is substituted by that of the receptor to RE oestrogens, and a plasmid which places the expression of the luciferase under the control of an ERE (Element of Response to Oestrogens). The expressed chimerical receptors are designated as RARα-ERcassette, RARβ-ERcassette, RARγ-ERcassette and RXRα-ERcassette. The A, B, D, E and F regions of the natural receptor are preserved as well as the transcriptional co-operation between the activation domains AF-1 and AF-2. These transitory transfection experiments follow the method of co-precipitation to calcium phosphate. The HeLa cells are co-transfected by […] of plasmid coding for the chimerical receptor, […] of reporter plasmid and […] of expression vector CMV-β-galactosidase used as an internal control of transfection. 24 hours after the transfection, the cells are incubated for 16 hours with the different effectors.
(§2) In this type of chimerical receptor, the C domain of bonding to the DNA of RAR is substituted by that of the receptor to the RE oestrogens. The protein obtained is close to the natural RAR receptor and preserves the transcriptional properties of the AF-1 and AF-2 domains. It modulates the transcription by means of an ERE. This RAR-ERcassette model allows one to observe a transcriptional response to a more physiological ligand.

The next test deals with RARβ-ERcassette. The test can be described thus: Transactivation, chimerical receptor RARβ-ERcassette (HeLa). Type of test: cell-based. To be noted: TTNPB 10^-8 M = 100.
Description: as §1, §2

For a further test, the system named is RARγ-ERcassette. Description: Transactivation, chimerical receptor RARγ-ERcassette (HeLa). Type of test: cell-based. As to conditions: TTNPB 10^-8 M = 100.
Description: as §1, §2

A further test deals with T-47D cells. Description: Effect on oestrogen-induced proliferation of T-47D cells. It is filed as cell-based, human. Here is the method: (§3) MCF-7 cells and HeLa are cultivated in DMFM with phenol red to which 5% foetal calf serum is added. The T47-D cells are cultivated in RPMI to which 10% foetal calf serum is added. The experimental tests are carried out in DMEM without phenol red to which foetal calf serum treated with dextran carbon is added at 3%. […] The experiments using the different retinoids are carried out sheltered from the light so as to avoid any isomerisation.
So as to test the anti-proliferation effect of the retinoids, growth experiments under oestrogenic conditions were carried out on cells MCF-7 and T-47D. These are the human oestrogen-dependent mammary cancer cells which express the receptor to RE oestrogens. The effect of the molecules is evaluated after 7 days of culture in oestrogenic conditions (estradiol 10^-9 M) by dosing the cellular DNA. The cells are distributed in 24 well plates at a density of 2×10^4 cells per well. The tests with the different retinoids are carried out in triplicate and the culture medium is changed after 4 days of growth.

Test [1] has as its system response element RARE of RARβ gene, endogenic retinoic receptors, HRLN lineage. Description: HRLN transactivation (RARE-luciferase, stably transfected HeLa). It is filed as cell-based. As to conditions: for Emax: read-out: HRLN transactivation, E max. As to the method:
as §3
(§4) Certain properties of the retinoids have been determined using more developed cellular models. These models consist of cellular lineages transfected in a stable fashion by recombinant plasmids which place the expression of the gene of the luciferase under the control of different nuclear response elements. […] The tests carried out in duplicate are described below for each of these models.
The cellular lineages HRLN and HRL+N allow one to study the activation of an RARE by endogenic receptors using ligands at physiological concentrations. These lineages derive from HeLa cells transfected in a stable fashion by a reporter gene which places the expression of the gene of the luciferase under the control of a nuclear response element RARE (RARE3 -tk-Luc). The HeLa cells express all the known receptors of the retinoic acid (RARα,β,γ and RXRα,β,γ) with a predominance of RARα and RXRα. The response element RARE used for the HRLN cells corresponds to the sequence of the natural gene of the RARβ receptor (GGTTCAnnnnnAGTTCA). The HRL+N cells comprise the sequence GAGTGAnnnnnCGGTGA.
This lineage comprises the response element RARE of the natural gene of the RARβ receptor which controls the expression of the gene of the luciferase.

Test [2] relates to ERE-βGlob-Luc, MELN lineage (MCF-7). The test can be described thus: Anti-oestrogenic effect, MELN lineage activated by estradiol. It is filed as cell-based, human. As to conditions: for inhibition: 10^-6 M; for inhibition at 0.1 µM: 10^-7 M; for anti-oestrogenic effect (in words): estradiol-activated MELN cells.
Description: as §4
MCF-7 cells express RARα,γ and RXRα. The transfection of MCF-7 cells by an oestrogen-dependent gene (ERE-βGlob-Luc) has permitted the establishment of the MELN cellular lineage, used to determine the anti-oestrogenic activity of the retinoids. These cells contain the gene of the luciferase under the transcriptional control of the promoter of the βGlobine and of the response element ERE isolated from the gene of chicken vitelogenine A2. The experiments are carried out with MELN cells activated by 10^-9 M estradiol. The level of base activity of the MELN cells is obtained with the anti-oestrogen 1 μM 4-OH-tamoxifen (hydroxytamoxifen).
The effect of the products tested on the cells activated by 10^-9 M estradiol is expressed as a percentage, the level of base activity being deducted.

The test system of another test is RAR and RXR receptors. The test can be described thus: RAR/RXR activity profile drawn from the models. It is filed as cell-based. The text has this: The reference molecules have allowed one to show the effectiveness and the complementary nature of the different models used and lead to the following conclusions: chimerical constructions GAL-RAR and RAR-ERcassette allow the determination of the RAR agonist profile of molecules, but also an RXR agonist activity with RAR-ERcassette, the HRLN lineage mainly conveys the activity of a compound mediated by endogenic RARα, the HRL+N lineage also provides evidence of an RXR agonist activity of the retinoids, the anti-oestrogenic effect of the retinoids (oestrogen-induced cellular proliferation and MELN lineage) is mediated by RARα, the anti-AP-1 effect is mediated in the MCF-7 cells (MTLN lineage) by RARα, RARγ and RXRα, and an additive effect exists between the RAR and RXR routes.

The subject of test [3] is AP-1, MTLN lineage (MCF-7). Description: Anti-AP-1 effect, MTLN lineage activated by TPA. It is filed as cell-based, human. Here is the method:
as §4
The anti-factor AP-1 transrepressor effect of retinoids is determined using the MTLN lineage, coming from MCF-7 cells transfected in a stable fashion by a vector p(TRE)3 -tk-Luc which places the expression of the gene of luciferase under the control of […]. TPA activates the AP-1 complex formed from proteins of the family of nuclear proto-oncogenes (c-Jun and c-Fos). […] The experiments are made with the MTLN cells activated by 10^-7 M TPA.
The effect of the compounds on the MTLN cells activated by 10^-7 M TPA is expressed as a percentage. […] The inhibitive properties of the products are calculated after deduction of the base activity of the cells. The percentages reported correspond to a range of inhibitions determined from several experiments.

For test [4], the system named is RAR-ERcassettes (RARα, RARβ, RARγ). The test can be described thus: Chimerical receptors RAR-ERcassettes, overall profile. Type of test: cell-based.
Description: as §1, §2

Where [5] appears, read: Homo sapiens, MCF7, cells activated by 10^-9 M estradiol.
Setting [6] is: Homo sapiens, MCF7, cells activated by 10^-9 M estradiol, read-out: anti-oestrogenic effect, inhibition.

As to `C/C(=C\c1ccc2c(c1)C(C)(C)CCC2(C)C)c1ccc(C(=O)O)cc1` [CB24159, reference compound], the “RAR-ERcassette RARα transactivation” value in the test on RARα-ERcassette (10^-6 M) worked out at 113%. Also, the “RAR-ERcassette RARβ transactivation” value with RARβ-ERcassette (10^-6 M) stood at 117%. In addition, in the test with RARγ-ERcassette (10^-6 M), the “RAR-ERcassette RARγ transactivation” value is given as 89%. Besides, the “effect on oestrogen-induced growth, T-47D (in words)” value in the test with T-47D cells (estradiol 10^-9 M) is “inhibits the growth of the T-47D cells in a dose dependent manner with an efficacy greater than that of TTNPB”. In test [1] (Homo sapiens, HeLa, concentrations from 1 nM to 1 μM), the EC50 came out at 0.08 ± 0.1 nM. Further, in test [1] (Homo sapiens, HeLa), the Emax was determined as 100%. In test [2] (setting [5]), the inhibition fell in the range of 22 to 37%. In addition, in [2] (setting [6]), the inhibition at 0.1 µM fell in the range of 26 to 43%. In addition, the inhibition at 0.01 µM in [2] (Homo sapiens, MCF7, 10^-8 M, cells activated by 10^-9 M estradiol, read-out: anti-oestrogenic effect, inhibition) was 31 to 43%. Also, the “anti-oestrogenic effect (in words)” value in [2] is given as “the most inhibiting of the oestrogenic transcription on the MELN model”. Besides, in the test with RAR and RXR receptors, the “RAR/RXR activity profile (in words)” value is listed as “RAR selective”.

With `C/C(=C/c1ccc2c(c1)C(C)(C)CCC2(C)C)c1ccc(C(=O)O)s1` [CB30382, (Z) 2-[1-(5,6,7,8-tetrahydro-5,5,8,8-tetramethyl-2-naphthalenyl)-2-propenyl]thienyl-5-carboxylic acid], the figures for the “RAR-ERcassette RARα transactivation” value with RARα-ERcassette (10^-6 M) and in the test on RARα-ERcassette (10^-7 M) were 93% and 12%, respectively. In addition, the results for the “RAR-ERcassette RARβ transactivation” value in the test on RARβ-ERcassette (10^-6 M) and in the test on RARβ-ERcassette (10^-7 M) were 130% and 39%, respectively. Also, the “RAR-ERcassette RARγ transactivation” value in the test with RARγ-ERcassette (10^-6 M) was found to be 83%; in the test on RARγ-ERcassette (10^-7 M) it was 29%. Moreover, the activity at 1 µM in the test with T-47D cells (Homo sapiens, T47D, 168 h, 10^-6 M, 100% = E2 10^-9 M, 7 days, read-out: growth of T-47D cells) was in the range of 73 to 94%. In [1], the “HRLN transactivation (in words)” value is reported as “induce a transactivation close to that of TTNPB”. Moreover, in [1] (Homo sapiens, HeLa), the Emax came to 102%. For the same compound, the inhibition at 1 µM in test [3] (Homo sapiens, MCF7, 10^-6 M, cells activated by 10^-7 M TPA, range of several experiments) lay in the range of 42 to 47%. Besides, the inhibition at 0.1 µM in [3] (Homo sapiens, MCF7, 10^-7 M, cells activated by 10^-7 M TPA, range of several experiments, read-out: anti-AP-1 effect, inhibition) was 21%; in test [2] (setting [6]) it was 0%. Besides, in test [3] (TPA-activated MTLN cells), the “anti-AP-1 effect (in words)” value is “exert an inhibitor effect comparable to that of the effect of CB28628”. The compound further registered an inhibition in test [2] (setting [5]) of 2 to 20%. Moreover, the “anti-oestrogenic effect (in words)” value in test [2] is “permit a transrepression of a controlled gene by an ERE”. In addition, the “RAR-ERcassette profile (in words)” value in test [4] was “induce a transactivation mediated by the three receptors”. In addition, the “RAR/RXR activity profile (in words)” value with RAR and RXR receptors is on record as “panagonistic”.
